Here are results for 1 compound from patent US20140294970A1, “STABILIZED PHARMACEUTICAL SUB-MICRON SUSPENSIONS AND METHODS OF FORMING SAME” (Alcon Research, Ltd., priority 2008, published 2014).

The structures appear in SMILES notation.

The assay has as its system FGFR. The assay can be described thus: Kinase inhibition, cell-free enzymatic assay. The class given is biochemical. The settings on record: 1 mM ATP. The method, then:
All data reported as IC50 values for kinase inhibition in cell-free enzymatic assays. Values determined @ 1 mM ATP.

Broadly, the IC50 is the concentration that inhibits the measured activity by half.

Regarding `Cc1ccc(F)c(NC(=O)Nc2ccc(-c3cccc4[nH]nc(N)c34)cc2)c1` [RTK Inhibitor, N-[4-(3-amino-1H-indazol-4-yl)phenyl]-N′-(2-fluoro-5-methylphenyl) urea], the IC50 is over 12.5 µM.
